Details: Fluid (supercritical or subcritical phases), Cylindrical cavity resonance method

C[Si]1(C)O[Si](C)(C)O[Si](C)(C)O[Si](C)(C)O1 [octamethylcyclotetrasiloxane]
Details | speed of sound [m/s]
450 K, 38.9 kPa | 110.35
450 K, 46.7 kPa | 109.66
450 K, 57.41 kPa | 108.8
450 K, 62.89 kPa | 108.3
450 K, 69.33 kPa | 107.73
465 K, 31.29 kPa | 113.04
465 K, 32.63 kPa | 112.99
465 K, 36.51 kPa | 112.75
465 K, 40.99 kPa | 112.32
465 K, 46.84 kPa | 111.94
465 K, 47.85 kPa | 111.91
465 K, 49.18 kPa | 111.72
465 K, 57.21 kPa | 111.2
465 K, 58.99 kPa | 110.98
465 K, 61.46 kPa | 110.82
465 K, 68.51 kPa | 110.33
465 K, 70.69 kPa | 110.06
465 K, 73.59 kPa | 109.87
465 K, 74.87 kPa | 109.83
465 K, 77.48 kPa | 109.53
465 K, 81.72 kPa | 109.28
465 K, 87.87 kPa | 108.72
465 K, 92.89 kPa | 108.29
465 K, 97.68 kPa | 107.96
465 K, 101.01 kPa | 107.53
465 K, 105.11 kPa | 107.28
465 K, 106.95 kPa | 107.18
465 K, 111.4 kPa | 106.69
465 K, 116.93 kPa | 106.3
465 K, 121.67 kPa | 105.76
465 K, 123.48 kPa | 105.66
480 K, 42.7 kPa | 114.02
480 K, 54.67 kPa | 113.2
480 K, 65.08 kPa | 112.48
480 K, 71.3 kPa | 112.04
480 K, 85.5 kPa | 111.07
480 K, 92.46 kPa | 110.5
480 K, 109.21 kPa | 109.24
480 K, 118.88 kPa | 108.49
480 K, 129.21 kPa | 107.67
480 K, 140.39 kPa | 106.77
480 K, 152.36 kPa | 105.77
480 K, 165.42 kPa | 104.64
495 K, 27.45 kPa | 117.14
495 K, 36.2 kPa | 116.66
495 K, 47.54 kPa | 115.98
495 K, 143.41 kPa | 109.74
495 K, 159.7 kPa | 108.43
495 K, 160.4 kPa | 108.39
495 K, 174.53 kPa | 107.35
495 K, 186.64 kPa | 106.44
495 K, 198.61 kPa | 105.49
495 K, 224.52 kPa | 103.41

C[Si]1(C)O[Si](C)(C)O[Si](C)(C)O[Si](C)(C)O[Si](C)(C)O1 [decamethylcyclopentasiloxane]
Details | speed of sound [m/s]
485 K, 35.39 kPa | 101.91
485 K, 43.63 kPa | 101.14
485 K, 49.43 kPa | 100.67
485 K, 55.24 kPa | 100.36
485 K, 63.6 kPa | 99.2
485 K, 64.42 kPa | 99.13
485 K, 74.85 kPa | 98.38
485 K, 82.92 kPa | 97.28
485 K, 85.12 kPa | 97.17
500 K, 22.13 kPa | 104.94
500 K, 22.48 kPa | 104.92
500 K, 26.3 kPa | 104.68
500 K, 31.33 kPa | 104.22
500 K, 32.27 kPa | 104.14
500 K, 33.93 kPa | 103.96
500 K, 39.9 kPa | 103.53
500 K, 42.7 kPa | 103.27
500 K, 47.88 kPa | 102.87
500 K, 51.58 kPa | 102.58
500 K, 55.42 kPa | 102.2
500 K, 64.64 kPa | 101.5
500 K, 64.96 kPa | 101.44
500 K, 73.64 kPa | 100.81
500 K, 74.95 kPa | 100.63
500 K, 78.98 kPa | 100.22
500 K, 85.9 kPa | 99.5
500 K, 95.37 kPa | 98.56
500 K, 105.42 kPa | 97.6
500 K, 116.6 kPa | 96.56
510 K, 34.55 kPa | 105.2
510 K, 43.26 kPa | 104.68
510 K, 51.27 kPa | 104.86
510 K, 57.1 kPa | 103.49
510 K, 62.78 kPa | 103.98
510 K, 72.53 kPa | 102.37
510 K, 82.51 kPa | 101.58
510 K, 89.89 kPa | 100.87
510 K, 92.75 kPa | 100.75
510 K, 103.28 kPa | 99.89
510 K, 110.69 kPa | 99.98
